# According to patent US7109341B2, “Therapeutic amides” (Wayne State University, priority 2002, dated 2006):
# Several values for one entry are separate records, joined by “and”; a condition that tells them apart may be missing. Equal values may be shown once. Read-outs that look alike come from different tables or passages of the source.
# Tests used:
# [1] = system: Pancreatic Adenocarcinoma 03; assay: Evaluation against early stage Pancreatic Adenocarcinoma 03 in BDF1 male mice (Table 1); assay type: in vivo, mouse; settings: Cage 8; IV; QD 3–5; total 180 mg/kg
# [2] = IV; total dose; cited from earlier work
# [3] = system: Mammary Adenocarcinoma 17/ADR; assay: Evaluation against early stage Mammary Adenocarcinoma 17/ADR, C3H/He females (Table 3); assay type: in vivo; settings: IV
# [4] = system: Pancreatic Ductal Adenocarcinoma #03; assay: Evaluation against early stage Pancreatic Ductal Adenocarcinoma #03, BD1 female mice (Table 2); settings: Cage 2; IV; QD3–6, 10; total 300 mg/kg
# [5] = system: Pancreatic Ductal Adenocarcinoma 03; assay: Evaluation against early stage Pancreatic Ductal Adenocarcinoma 03 in female BDF1 mice (Table 4); assay type: in vivo, mouse; settings: IV
# Excerpt: The higher dose requirement for compound 14e may be a disadvantage over compound 11b (Cage 14).
# [6] = system: Pancreatic Ductal Adenocarcinoma 03; settings: footnote, no dose given; cited from earlier work;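 as to T/C: mice carrying bilateral subcutaneous tumors, with tumor weight estimated from two-dimensional caliper readings taken twice a week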;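 as to activity rating: mice carrying bilateral subcutaneous tumors, with tumor weight estimated from two-dimensional caliper readings taken twice a week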
# [7] = Water solubility noted on drug preparation for injection; assay type: physicochemical; settings: white solid + 3% EtOH + 1% POE + 0.25% NaHCO3 + saline, pH = 9 → 7 with 1N HCl
# Description: (§1) Compounds as their sodium salts were prepared in a 1% sodium bicarbonate solution, H2O or phosphate buffered saline (PBS), with pH adjusted to 7.0 to 7.5 with HCl, and administered intravenously (IV) or orally (PO), at injection volumes of 0.2 mL per injection.
# [8] = system: Pancreatic Ductal Adenocarcinoma 03; assay: Evaluation against early stage Pancreatic Ductal Adenocarcinoma 03, IP route, C57 females (Table 9); assay type: in vivo
# Description: The IP route was used for two reasons. […] This is approximately 40% of the dose given IV with the racemic mix (60 mg/kg, see Table 7).
# [9] = system: Pancreatic Ductal Adenocarcinoma 03; settings: for Comments (Active/Inactive) / Comments (activity rating) / Drug Death / Log Cell Kill / Median Tumor Burden in mg on d17 / T-C / T/C % / Time to 1000 mg / Tumor Free on 148: BDF1 males;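 as to T/C: mice carrying bilateral subcutaneous tumors, with tumor weight estimated from two-dimensional caliper readings taken twice a week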;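 as to activity rating: mice carrying bilateral subcutaneous tumors, with tumor weight estimated from two-dimensional caliper readings taken twice a week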
# Description: (§2) Pancreatic ductal adenocarcinoma-03, mammary adenocarcinoma-16/C, mammary adenocarcinoma-17/Adr, and human melanoma LOX were used in the studies. Tumors were maintained in the mouse strain of origin (C57B1/6 for Panc-03 and C3H for the mammary tumors). Balb/c SCID mice (B and T cell deficient) were used for tumor maintenance and chemotherapy trials involving the human melanoma LOX. Tumors were transplanted into the appropriate F1 hybrid (B6D2F1=C57B 1/6 female× DBA/2 male) or the strain of origin for the chemotherapy trials. Individual mouse body weights for each experiment were within 5 grams, and all mice were over 17 grams at the start of therapy. The mice were supplied food and water ad libitum.
# (§3) Animals were pooled, implanted subcutaneously with 30 to 60 mg tumor fragments by a 12 gauge trocar on day 0, and again pooled before unselective distribution to the various treatment and control groups. For early stage treatment, chemotherapy was started within 1 to 3 days after tumor implantation while the number of cells was relatively small (10^7 to 10^8 cells). For upstaged or advanced staged trials, the tumors were allowed to grow for five or more days before treatment was started. Tumors were measured with a caliper twice weekly. […] Tumor weights are estimated from two-dimensional measurements:
# (§4) Tumor weight (in mg)=(a×b^2)/2, where a and b are the tumor length and width in (mm), respectively.
# a) Tumor growth delay (T−C value), where T is the median time (in days) required for the treatment group tumors to reach a predetermined size (e.g., 1,000 mg), and C is the median time (in days) for the control group tumors to reach the same size. Tumor-free survivors were are excluded from these calculations (cures are tabulated separately). This value is an important criterion of anti-tumor effectiveness because it allows the quantification of tumor cell kill.
# (§5) b) Calculation of tumor cell kill for subcutaneously (SC) growing tumors. […] The conversion of the T−C values to log10 cell kill is possible because the Td of tumors re-growing post treatment (Rx) approximates the Td values of the tumors in untreated control mice.
# (§6) It should be noted that an activity rating of +++ to ++++ is needed to effect partial regression (PR) or complete regression (CR) of 100 to 300 mg size masses of most transplanted solid tumors of mice. Thus, an activity rating of + or ++ would not be scored as active by usual clinical criteria. A PR is a reduction in tumor mass to less than 50% of pretreatment size. A CR is a reduction in tumor mass to below palpable size (i.e., reduction to zero detectable mass).
# (§7) The T/C value in percent is an indication of anti-tumor effectiveness: A T/C=0% means no tumor growth. A T/C=100% means no anti-tumor activity, i.e., the treated and control tumors grew equally. […] A T/C value<10% is considered to indicate highly significant anti-tumor activity, and is the level used by NCI to justify a clinical trial if toxicity, formulation, and certain other requirements are met (termed DN-2 level activity).
# as §1
# Thus, for this test, all compounds initially were to be given IP, in an attempt to identify a suitable alternate route of administration.
# [10] = system: Mammary Adenocarcinoma 16/C; settings: Cage 4, IV, qd 1–5, total 240 mg/kg
# Excerpt: Table 7. […] The animal was then re-implanted with Mam16/C/71.
# [11] = system: Mammary Adenocarcinoma 16/C
# Description: as §2, §3, §4
# a) Tumor growth delay (T−C value), where T is the median time (in days) required for the treatment group tumors to reach a predetermined size (e.g., 1,000 mg), and C is the median time (in days) for the control group tumors to reach the same size. Tumor-free survivors were are excluded from these calculations (cures are tabulated separately).
# as §5, §6, §7, §1
# [12] = Cage 4, 56 mg/kg/injection QD-1–5 and 10, total 336 mg/kg
# [13] = Cage 5, 57 mg/kg/injection QD 3–9, total 399 mg/kg
# [14] = Cage 6, 38 mg/kg/injection QD 3–9, total 266 mg/kg
# [15] = Cage 2, 7.5 mg/kg/inj days 1, 7, total 15 mg/kg
# [16] = Cage 5, Qd3–7, total 157.5 mg/kg
# [17] = Cage 11, IP, 80 mg/kg/inj days 3, 5, 11, 13, 15, total 400 mg/kg
# [18] = Cage 12, IP, 50 mg/kg/inj Q2d×7 from day 3, total 350 mg/kg
# [19] = IP, Q2d: 3–15, total dosage 350 mg/kg
# [20] = IP, d3, 5, 11, 13, 15, total dosage 400 mg/kg
# [21] = Cage 2, IV, Q2Dx8, total 480 mg/kg
compound,measurement,setting,value
"CC(Oc1ccc(Oc2cnc3ccc(Cl)cc3n2)cc1)C(=O)O (racemic) [XK469, reference compound]",Day of Wt. Loss Nadir,[1],8 days
same,Drug Deaths (days of death),[1],no drug deaths and 0/5
same,Log Kill,[1],1.43 and 1.4
same,Mean Body Wt. Loss in g/mouse,[1],−3.6 g/mouse
same,Median tumor burden in mg on day 14 (range),[1],189 mg
same,Percent Body Wt. Loss,[1],−15.5%
same,T-C,[1],9 days
same,T/C %,[1],11%
same,Time to 1000 mg days (range),[1],20 days
same,Tumor Free on day 21,[1],0/5
same,day of body weight recovery,[1],13 days
same,MTD (historical),[2],450 to 480 mg/kg
same,% Body Wt Loss at Nadir,[3]; [12],−7.1%
same,% T/C mass,[3]; [12],9%
same,Activity Rating,[3]; [12],++++ (Highly active >2.8)
same,Day of Nadir,[3]; [12],8 days
same,Drug Deaths,[3]; [12],0/5
same,Growth Delay,[3]; [12],15.5 days
same,Log Kill,[3]; [12],4.2
same,Median Tumor Mass on Day 9 (Range),[3]; [12],108
same,Tumor Free day-21,[3]; [12],0/5
same,Activity Rating,[4],++++ (Highly active >2.8)
same,Day of Wt. Loss Nadir,[4],8 days
same,Drug Deaths (day of death),[4],0/5
same,Growth Delay,[4],28.1 days
same,Log Cell Kill,[4],3.3
same,Mean Body Wt. Loss (g/mouse),[4],−3.2 g/mouse
same,Median Tumor Burden in mg on d18 (Range),[4],64 mg
same,T/C %,[4],4%
same,Time in days to 1000 mg (range),[4],41.1 days
same,Tumor Free on d 154,[4],1/5
same,day of full body weight recovery,[4],~12 days
same,% Body Wt Loss at Nadir,[5]; [13],−6.7%
same,% T/C mass,[5]; [13],4.1%
same,Activity Rating,[5]; [13],++ (1.3–1.9)
same,Day of Nadir,[5]; [13],8 days
same,Drug Deaths,[5]; [13],0/5
same,Growth Delay,[5]; [13],11.5 days
same,Log Kill,[5]; [13],1.7
same,Median Tumor Mass on Day 14 (Range),[5]; [13],63
same,Tumor Free day-37,[5]; [13],0/5
same,% Body Wt Loss at Nadir,[5]; [14],−6.7%
same,% T/C mass,[5]; [14],8.3%
same,Activity Rating,[5]; [14],++ (1.3–1.9)
same,Day of Nadir,[5]; [14],5 days
same,Drug Deaths,[5]; [14],0/5
same,Growth Delay,[5]; [14],9.5 days
same,Log Kill,[5]; [14],1.4
same,Median Tumor Mass on Day 14 (Range),[5]; [14],126
same,Tumor Free day-37,[5]; [14],0/5
"COc1cccc2c1C(=O)c1c(O)c3c(c(O)c1C2=O)C[C@@](O)(C(=O)CO)C[C@@H]3O[C@H]1C[C@H](N)[C@H](O)[C@H](C)O1 [Adriamycin, reference compound]",sensitivity of this tumor to standard agents (activity rating),[6],It is nicely sensitive to Adriamycin (+++ activity). (2.0–2.8)
same,% Body Wt Loss at Nadir,[3]; [15],−1.4%
same,% T/C mass,[3]; [15],90%
same,Activity Rating,[3]; [15],inactive
same,Day of Nadir,[3]; [15],7 days
same,Drug Deaths,[3]; [15],0/5
same,Growth Delay,[3]; [15],0 days
same,Log Kill,[3]; [15],none
same,Median Tumor Mass on Day 9 (Range),[3]; [15],1086
same,Tumor Free day-21,[3]; [15],0/5
"O=c1[nH]cc(F)c(=O)[nH]1 [Compound 5-FU, 5-FU]",sensitivity of this tumor to standard agents (activity rating),[6],It is modestly responsive to 5-FU (+ activity). (0.7–1.2)
"CC(Oc1ccc(Oc2ccc3ccc(Br)cc3n2)cc1)C(=O)O [Compound 11c (R), 2-{4-{(7-bromo-2-quinolinyl)oxy}phenoxy}propionic acid, reference compound]",Preparation: state of the injection preparation,[7],"Compound 11c (R): white solid + 3% EtOH + 1% POE + 0.25% NaHCO3 + saline → solution (pH = 9 → 7 with 1N HCl); 0.5 ml/mouse/inj, IP."
same,Comments (activity rating),"[8]; Cage 4, Qd3–7, total 260 mg/kg",LD20
same,Day of Wt. Loss Nadir,"[8]; Cage 4, Qd3–7, total 260 mg/kg",10 days
same,Drug Death (day of death),"[8]; Cage 4, Qd3–7, total 260 mg/kg",One drug death and 1/5
same,Log Cell Kill,"[8]; Cage 4, Qd3–7, total 260 mg/kg",1.5
same,Mean Body Wt. Loss in g/mouse,"[8]; Cage 4, Qd3–7, total 260 mg/kg",−3.2 g/mouse
same,Median Tumor Burden in mg on d14 (range),"[8]; Cage 4, Qd3–7, total 260 mg/kg",126 mg
same,Percent Body Weight Loss,"[8]; Cage 4, Qd3–7, total 260 mg/kg",−16.7%
same,T-C,"[8]; Cage 4, Qd3–7, total 260 mg/kg",10.5 days
same,T/C %,"[8]; Cage 4, Qd3–7, total 260 mg/kg",12.6%
same,Time to 1000 mg in days (range),"[8]; Cage 4, Qd3–7, total 260 mg/kg",24.5 days
same,Tumor Free on d31,"[8]; Cage 4, Qd3–7, total 260 mg/kg",0/5
same,day of full body weight recovery,"[8]; Cage 4, Qd3–7, total 260 mg/kg",≤ 17 days
same,Day of Wt. Loss Nadir,[8]; [16],9 days
same,Drug Death (day of death),[8]; [16],0/5
same,Log Cell Kill,[8]; [16],1.58
same,Mean Body Wt. Loss in g/mouse,[8]; [16],−0.0 g/mouse
same,Median Tumor Burden in mg on d14 (range),[8]; [16],260 mg
same,T-C,[8]; [16],11 days
same,T/C %,[8]; [16],26%
same,Time to 1000 mg in days (range),[8]; [16],25 days
same,Tumor Free on d31,[8]; [16],0/5
same,Activity Rating,[9]; [17],++++ (Highly active >2.8)
same,T/C,[9]; [17],0%
same,log cell kill,[9]; [17],3.3
same,tumor free on day 148,[9]; [17],1/5 and One mouse remained tumor free
same,Activity Rating,[9]; [18],++ (1.3–1.9)
same,T/C,[9]; [18],3%
same,log kill,[9]; [18],1.4
same,Comments (Active/Inactive),[9]; [19],Active
same,Comments (activity rating),[9]; [19],(++) (1.3–1.9)
same,Drug Death,[9]; [19],0/5
same,Log Cell Kill,[9]; [19],1.4
same,Median Tumor Burden in mg on d17,[9]; [19],63 mg
same,T-C,[9]; [19],10 days
same,T/C %,[9]; [19],3%
same,Time to 1000 mg,[9]; [19],25 days
same,Tumor Free on 148,[9]; [19],0/5
same,Comments (Active/Inactive),[9]; [20],Active
same,Comments (activity rating),[9]; [20],(++++) (Highly active >2.8)
same,Drug Death,[9]; [20],0/5
same,Log Cell Kill,[9]; [20],3.3
same,Median Tumor Burden in mg on d17,[9]; [20],0 mg
same,T-C,[9]; [20],23 days
same,T/C %,[9]; [20],0%
same,Time to 1000 mg,[9]; [20],38 days
same,Tumor Free on 148,[9]; [20],1/5
same,Day of Wt. Loss Nadir,"[9]; mouse, in vivo",9 days and 8 days
same,day of full weight recovery,"[9]; mouse, in vivo",16 days and 11 days
same,day of weight loss nadir,"[9]; mouse, in vivo",9 days and 8 days
same,Day of Wt. Loss Nadir,[10],9 days
same,Drug Death (day of death),[10],One animal died and 1/5
same,Log Cell Kill,[10],1.8
same,Mean Body Wt. Loss in g/mouse,[10],−6.0 g/mouse
same,Median Tumor Burden in mg on d 9 (range),[10],0 mg
same,Percent Body Weight Loss,[10],−29.4%
same,T-C,[10],7.2 days
same,T/C %,[10],0%
same,"Time to 1,000 mg in days (range)",[10],15.2 days
same,Tumor Free on d 161,[10],0/5
same,day of body weight recovery,[10],≤ 13 days
same,toxicity observations,[10],diarrhea
same,body weight loss day 6,[10]; day 6,−17.5%
same,Drug Death (day of death),[11]; [21],0/5
same,Log Cell Kill,[11]; [21],4.8
same,Median Tumor Burden in mg on day 7 (range),[11]; [21],0 mg
same,T-C,[11]; [21],16 days
same,T/C %,[11]; [21],0%
same,Time to 1000 mg in days (range),[11]; [21],22 days
same,Tumor Free on d28,[11]; [21],no cures and 0/5
same,Day of Wt. Loss Nadir,"[11]; mouse, in vivo",14 days
same,Percent Body Weight Loss,"[11]; mouse, in vivo",−4.3%
CC(=O)O[C@H]1C(=O)[C@@]2(C)[C@H]([C@H](OC(=O)c3ccccc3)[C@]3(O)C[C@H](OC(=O)[C@H](O)[C@@H](NC(=O)c4ccccc4)c4ccccc4)C(C)=C1C3(C)C)[C@]1(OC(C)=O)CO[C@@H]1C[C@@H]2O [Taxol],sensitivity of this tumor to standard agents (activity rating),[6],This tumor is highly sensitive to Taxol (++++ activity rating). (Highly active >2.8)
CC[C@]1(O)C[C@@H]2CN(CCc3c([nH]c4ccccc34)[C@@](C(=O)OC)(c3cc4c(cc3OC)N(C)[C@H]3[C@@](O)(C(=O)OC)[C@H](OC(C)=O)[C@]5(CC)C=CCN6CC[C@]43[C@@H]65)C2)C1 [Vinblastine],sensitivity of this tumor to standard agents (activity rating),[6],It is insensitive to Vinblastine.
